Molecules are shown by their SMILES.

As for `Cn1cc(C(=O)NCc2ccc(Cl)cc2)c(=O)c2cc(COCC[C@@H](O)c3ccccc3)sc21`, the melting point is 154.5 to 155.5 °C.

The values are drawn from patent US20050004161A1 (published 2005).
